Tests used:
Test in all cases: relative viability (nuclei count vs DMSO), 5 days (fraction); higher = more cells survive
[1] = compound: Cn1nnc2c(C(N)=O)ncn2c1=O [Temozolomide] + CC(=O)c1c(C)c2cnc(Nc3ccc(N4CCNCC4)cn3)nc2n(C2CCCC2)c1=O [Palbociclib] (partner 0.5 µM)
Summary of the method: (§1)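 A single step with final 0.05% Triton X-100, 1% formaldehyde and 1 ug/ml Hoechst fixed the cells and stained nuclei 5 days after treatment. Lung cancer cell lines in 1536-well plates had been treated by pin tool the day after seeding with one drug alone or a fixed anchor-drug dose plus five library-drug doses (not always all listed) in √10 steps, and nuclei were counted on 4× images. Relative viability is the ratio of nuclei in treated wells to nuclei in vehicle wells, taken as the median of duplicate plates.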

AZD5582 + Linsitinib = compound: C[C@@H](C(=O)N[C@@H](C1CCCCC1)C(=O)N2CCC[C@H]2C(=O)N[C@@H]3[C@@H](CC4=CC=CC=C34)OCC#CC#CCO[C@@H]5CC6=CC=CC=C6[C@@H]5NC(=O)[C@@H]7CCCN7C(=O)[C@H](C8CCCCC8)NC(=O)[C@H](C)NC)NC [AZD5582] + C[C@]1(O)C[C@@H](c2nc(-c3ccc4ccc(-c5ccccc5)nc4c3)c3c(N)nccn32)C1 [Linsitinib] (partner 1 µM)
Summary of the method: as §1

AZD5582 + Bortezomib = compound: C[C@@H](C(=O)N[C@@H](C1CCCCC1)C(=O)N2CCC[C@H]2C(=O)N[C@@H]3[C@@H](CC4=CC=CC=C34)OCC#CC#CCO[C@@H]5CC6=CC=CC=C6[C@@H]5NC(=O)[C@@H]7CCCN7C(=O)[C@H](C8CCCCC8)NC(=O)[C@H](C)NC)NC [AZD5582] + CC(C)C[C@H](NC(=O)[C@H](Cc1ccccc1)NC(=O)c1cnccn1)B(O)O [Bortezomib] (partner 0.002 µM)
Summary of the method: as §1

Temozolomide + Dasatinib = compound: Cn1nnc2c(C(N)=O)ncn2c1=O [Temozolomide] + Cc1nc(Nc2ncc(C(=O)Nc3c(C)cccc3Cl)s2)cc(N2CCN(CCO)CC2)n1 [Dasatinib] (partner 0.075 µM)
Summary of the method: as §1

| Cell Line | relative viability ([1]; first compound 0.2 µM) | relative viability ([1]; first compound 0.6325 µM) | relative viability ([1]; first compound 2 µM) | relative viability ([1]; first compound 6.325 µM) | relative viability ([1]; first compound 20 µM) | relative viability (AZD5582 + Linsitinib; first compound 0.001581 µM) | relative viability (AZD5582 + Linsitinib; first compound 0.005 µM) | relative viability (AZD5582 + Linsitinib; first compound 0.01581 µM) | relative viability (AZD5582 + Linsitinib; first compound 0.05 µM) | relative viability (AZD5582 + Bortezomib; first compound 0.001581 µM) | relative viability (AZD5582 + Bortezomib; first compound 0.005 µM) | relative viability (AZD5582 + Bortezomib; first compound 0.01581 µM) | relative viability (AZD5582 + Bortezomib; first compound 0.05 µM) | relative viability (Temozolomide + Dasatinib; first compound 0.2 µM) | relative viability (Temozolomide + Dasatinib; first compound 0.6325 µM) | relative viability (Temozolomide + Dasatinib; first compound 2 µM) | relative viability (Temozolomide + Dasatinib; first compound 6.325 µM) | relative viability (Temozolomide + Dasatinib; first compound 20 µM) |
| --- | --- | --- | --- | --- | --- | --- | --- | --- | --- | --- | --- | --- | --- | --- | --- | --- | --- | --- |
| NCI-H1755 | 0.443 | 0.478 | 0.477 | 0.436 | 0.424 | 1.01 | 1.02 | 0.982 | 1.09 | 0.925 | 1.02 | 0.936 | 1.02 | 0.439 | 0.418 | 0.427 | 0.395 | 0.473 |
| NCI-H1792 | 0.569 | 0.654 | 0.638 | 0.663 | 0.619 | 0.49 | 0.588 | 0.516 | 0.792 | 0.92 | 1.02 | 0.892 | 1.22 | 0.498 | 0.747 | 0.73 | 0.778 | 0.867 |
| NCI-H1915 | 0.546 | 0.483 | 0.521 | 0.399 | 0.228 | 1.08 | 1.13 | 1.11 | 0.905 | 0.938 | 0.991 | 0.92 | 0.855 | 0.348 | 0.328 | 0.288 | 0.215 | 0.198 |
| NCI-H1975 | 0.575 | 0.608 | 0.564 | 0.606 | 0.485 | 1.08 | 1.04 | 1.01 | 1.25 | 0.327 | 0.458 | 0.373 | 0.414 | 0.466 | 0.365 | 0.413 | 0.361 | 0.462 |
| NCI-H1993 | 0.558 | 0.772 | 0.618 | 0.755 | 0.589 | 0.688 | 0.657 | 0.724 | 0.705 | 1.06 | 1.38 | 1.15 | 1.1 | 0.528 | 0.603 | 0.524 | 0.661 | 0.6 |
| NCI-H2009 | 0.274 | 0.217 | 0.238 | 0.224 | 0.225 | 1.2 | 1.21 | 1.2 | 1.16 | 0.838 | 1.13 | 0.61 | 0.9 | 0.316 | 0.299 | 0.404 | 0.306 | 0.326 |
| NCI-H2023 | 0.407 | 0.377 | 0.377 | 0.379 | 0.346 | 0.666 | 0.741 | 0.691 | 0.677 | 0.934 | 1.1 | 0.721 | 0.716 | 0.64 | 0.56 | 0.616 | 0.572 | 0.6 |
| NCI-H2085 | 0.487 | 0.487 | 0.457 | 0.454 | 0.449 | 0.755 | 0.9 | 0.891 | 0.938 | 0.953 | 1.19 | 0.933 | 1.17 | 0.22 | 0.293 | 0.282 | 0.262 | 0.218 |
| NCI-H2087 | 0.254 | 0.239 | 0.224 | 0.259 | 0.225 | 0.879 | 0.948 | 0.961 | 0.902 | 0.874 | 0.861 | 0.735 | 0.933 | 0.909 | 0.97 | 1.02 | 0.734 | 0.882 |
| NCI-H2126 | 0.347 | 0.332 | 0.349 | 0.355 | 0.345 | 0.666 | 0.709 | 0.715 | 0.745 | 1.08 | 1.1 | 1.01 | 1.05 | 0.634 | 0.664 | 0.678 | 0.61 | 0.641 |
| NCI-H2228 | 0.918 | 1.03 | 0.809 | 0.798 | 0.614 | 0.903 | 0.689 | 0.813 | 0.44 | 0.857 | 1.34 | 1.36 | 0.439 | 0.577 | 0.637 | 0.516 | 0.463 | 0.44 |
| NCI-H2347 | 0.442 | 0.473 | 0.388 | 0.408 | 0.474 | 0.914 | 1.08 | 0.972 | 0.952 | 0.73 | 0.949 | 0.693 | 0.929 | 0.328 | 0.329 | 0.298 | 0.303 | 0.282 |
| NCI-H2405 | 0.442 | 0.576 | 0.518 | 0.5 | 0.508 | 0.954 | 0.989 |  | 1 | 0.972 | 1.01 | 0.88 | 0.947 | 0.214 | 0.222 | 0.254 | 0.199 | 0.21 |
| NCI-H3122 | 0.206 | 0.202 | 0.175 | 0.174 | 0.153 | 1.02 | 1.03 | 0.967 | 0.313 | 1.03 | 0.954 | 1.07 | 0.729 | 0.931 | 0.803 | 0.886 | 0.812 | 0.828 |
| PC-3 [JPC-3] | 0.541 | 0.554 | 0.543 | 0.545 | 0.433 | 0.933 | 0.944 | 1.04 | 0.691 | 0.8 | 0.788 | 0.793 | 0.38 | 0.825 | 0.987 | 1.07 | 1.02 | 0.438 |
| PC-14 | 0.706 | 0.515 | 0.472 | 0.527 | 0.415 | 0.895 | 1.02 | 0.902 | 0.958 | 0.736 | 0.777 | 0.85 | 0.743 | 0.216 | 0.317 | 0.318 | 0.257 | 0.0365 |
| RERF-LC-KJ | 1.02 | 1.1 | 1.11 | 1.17 | 1.02 | 0.525 | 0.481 | 0.879 | 0.464 |  | 0.42 | 1.11 | 0.654 | 0.913 | 0.825 | 0.931 | 0.931 | 0.767 |
| SK-LU-1 | 0.382 | 0.397 | 0.431 | 0.33 | 0.318 | 0.613 | 0.495 | 1.23 | 0.273 | 0.436 | 0.697 | 0.856 | 0.477 | 0.196 | 0.178 | 0.206 | 0.143 | 0.197 |
| SW 1573 | 0.502 | 0.44 | 0.467 | 0.4 | 0.429 | 0.918 | 0.834 | 0.801 | 0.916 | 1.3 | 0.996 | 1.04 | 1.43 | 0.532 | 0.533 | 0.594 | 0.355 | 0.489 |
| UMC-11 | 0.312 | 0.38 | 0.3 | 0.286 | 0.321 | 0.931 | 1.07 | 0.96 | 1.11 | 0.677 | 0.873 | 0.733 | 0.709 | 0.567 | 0.469 | 0.536 | 0.489 | 0.442 |
